Assay results as given in the CheMixHub viscosity set.
± gives the uncertainty stated by the source.

Assay: xn = mol fraction of the nth substance listed

CS(C)=O + CC(C)O
viscosity [mPa·s]
Conditions | 298.15 K | 303.15 K | 308.15 K | 318.15 K
101 kPa, x1 = 0.0385 | 1.91 ± 0.02 | 1.59 ± 0.02 | 1.46 ± 0.01 | –
101 kPa, x1 = 0.0787 | 1.77 ± 0.02 | 1.49 ± 0.01 | 1.36 ± 0.01 | –
101 kPa, x1 = 0.1001 | – | 1.525 ± 0.069 | – | –
101 kPa, x1 = 0.2059 | 1.51 ± 0.01 | – | – | –
101 kPa, x1 = 0.2479 | 1.45 ± 0.01 | 1.32 ± 0.01 | 1.2 ± 0.01 | –
101 kPa, x1 = 0.339 | 1.42 ± 0.01 | 1.29 ± 0.01 | – | –
101 kPa, x1 = 0.4639 | 1.45 ± 0.01 | 1.32 ± 0.01 | – | –
101 kPa, x1 = 0.5357 | 1.48 ± 0.01 | 1.35 ± 0.01 | 1.24 ± 0.01 | –
101 kPa, x1 = 0.6422 | 1.55 ± 0.01 | 1.42 ± 0.01 | 1.32 ± 0.01 | –
101 kPa, x1 = 0.7547 | 1.66 ± 0.01 | 1.51 ± 0.01 | 1.39 ± 0.01 | –
101 kPa, x1 = 0.8134 | 1.72 ± 0.01 | 1.57 ± 0.01 | 1.45 ± 0.01 | –
101 kPa, x1 = 0.8738 | 1.8 ± 0.02 | 1.64 ± 0.01 | 1.5 ± 0.01 | –
101 kPa, x1 = 0.9005 | – | – | – | 1.285 ± 0.06
101 kPa, x1 = 0.936 | 1.88 ± 0.02 | 1.72 ± 0.01 | – | –
101.3 kPa, x1 = 0.0788 | 1.742 ± 0.081 | 1.576 ± 0.074 | – | –
101.3 kPa, x1 = 0.1608 | 1.589 ± 0.075 | 1.447 ± 0.068 | – | –
101.3 kPa, x1 = 0.2475 | 1.473 ± 0.07 | 1.358 ± 0.065 | – | –
101.3 kPa, x1 = 0.3389 | 1.475 ± 0.07 | 1.319 ± 0.063 | – | –
101.3 kPa, x1 = 0.4347 | 1.451 ± 0.069 | – | – | –
101.3 kPa, x1 = 0.5347 | 1.501 ± 0.071 | 1.346 ± 0.064 | – | –
101.3 kPa, x1 = 0.6423 | 1.597 ± 0.075 | 1.406 ± 0.067 | – | –
101.3 kPa, x1 = 0.7546 | 1.679 ± 0.078 | 1.505 ± 0.071 | – | –
101.3 kPa, x1 = 0.8737 | 1.828 ± 0.085 | 1.622 ± 0.076 | – | –

OC1CCCCC1 + CN1CCCC1=O
Conditions | viscosity [mPa·s]
303.15 K, 101 kPa, x2 = 0.6223 | 16.55 ± 3.3

CCCCN(CCC#N)CCCC + O=S=O
303.15 K, 100 kPa
Conditions | viscosity [mPa·s]
x2 = 0.17 | 4.1
x2 = 0.34 | 8
x2 = 0.45 | 13.8

CCOC(=O)C(C)O (centres undefined) + CN1CCCC1=O
viscosity [mPa·s], 101 kPa
Conditions | 293.15 K | 313.15 K
x1 = 0.0999 | – | 1.525 ± 0.015
x1 = 0.3001 | 2.585 ± 0.025 | 1.765 ± 0.017

CCCCC + CC1CCCCC1
viscosity [mPa·s], 101 kPa
Conditions | x2 = 0.0407 | x2 = 0.2014 | x2 = 0.2807 | x2 = 0.3471 | x2 = 0.4382 | x2 = 0.6005 | x2 = 0.681 | x2 = 0.7595 | x2 = 0.8406 | x2 = 0.9199
293.15 K | 0.2369 ± 0.003 | 0.2738 ± 0.0033 | 0.2958 ± 0.0035 | 0.3151 ± 0.0037 | 0.3506 ± 0.004 | 0.429 ± 0.0049 | 0.4775 ± 0.0054 | 0.5323 ± 0.0061 | 0.5947 ± 0.0069 | 0.6586 ± 0.0077
298.15 K | 0.2277 ± 0.003 | 0.2567 ± 0.0032 | 0.2795 ± 0.0034 | 0.3014 ± 0.0036 | 0.337 ± 0.0039 | 0.4124 ± 0.0047 | 0.4571 ± 0.0053 | 0.5046 ± 0.0058 | 0.5587 ± 0.0065 | 0.6168 ± 0.0073
303.15 K | 0.1977 ± 0.0028 | 0.2381 ± 0.0031 | 0.2612 ± 0.0033 | 0.2824 ± 0.0035 | 0.3164 ± 0.0038 | 0.3885 ± 0.0045 | 0.431 ± 0.005 | 0.4771 ± 0.0056 | 0.5299 ± 0.0062 | 0.5849 ± 0.007

C1CCCCCCC1 + c1ccccc1
303.15 K, 101 kPa
Conditions | viscosity [mPa·s]
x1 = 0.1002 | 0.5993 ± 0.0042
x1 = 0.2 | 0.6484 ± 0.0044
x1 = 0.2967 | 0.7078 ± 0.0047
x1 = 0.3983 | 0.788 ± 0.0051
x1 = 0.4982 | 0.8861 ± 0.0056
x1 = 0.6999 | 1.179 ± 0.0072
x1 = 0.8961 | 1.654 ± 0.0098

CC(=O)O.NCCO + CCO
viscosity [mPa·s], 101 kPa
Conditions | x1 = 0.0193 | x2 = 0.7231 | x2 = 0.7996 | x2 = 0.8604 | x2 = 0.9136 | x2 = 0.9373 | x2 = 0.9595
293.15 K | 1.608 ± 0.074 | 20.45 ± 1.1 | 9.894 ± 0.72 | 5.502 ± 0.34 | 3.168 ± 0.17 | 2.55 ± 0.12 | 1.998 ± 0.096
298.15 K | 1.458 ± 0.068 | 16.96 ± 0.95 | 8.454 ± 0.44 | 4.8 ± 0.24 | 2.85 ± 0.14 | 2.28 ± 0.11 | 1.806 ± 0.083
303.15 K | 1.32 ± 0.062 | 14.22 ± 0.81 | 7.26 ± 0.31 | 4.212 ± 0.18 | 2.55 ± 0.11 | 2.07 ± 0.095 | 1.65 ± 0.074

CCCCC(=O)OCC + CCCCCCO
viscosity [mPa·s], 101.33 kPa
Conditions | x1 = 0.1071 | x1 = 0.2022 | x1 = 0.3018 | x1 = 0.3929 | x1 = 0.5117 | x1 = 0.6028 | x1 = 0.7035 | x1 = 0.8025 | x1 = 0.9053
293.15 K | 3.938 ± 0.05 | 3.209 ± 0.043 | 2.61 ± 0.037 | 2.177 ± 0.032 | 1.74 ± 0.028 | 1.483 ± 0.025 | 1.258 ± 0.023 | 1.086 ± 0.021 | 0.946 ± 0.02
303.15 K | 3.004 ± 0.041 | 2.46 ± 0.035 | 2.012 ± 0.03 | 1.688 ± 0.027 | 1.362 ± 0.024 | 1.17 ± 0.022 | 1.002 ± 0.02 | 0.873 ± 0.019 | 0.769 ± 0.018
313.15 K | 2.257 ± 0.033 | 1.873 ± 0.029 | 1.558 ± 0.026 | 1.329 ± 0.023 | 1.1 ± 0.021 | 0.964 ± 0.02 | 0.846 ± 0.019 | 0.755 ± 0.018 | 0.682 ± 0.017

OC1CCCCC1 + CS(C)=O
303.15 K, 101 kPa
Conditions | viscosity [mPa·s]
x2 = 0.1009 | 20.83 ± 0.21
x2 = 0.1821 | 12.4 ± 0.12
x2 = 0.2727 | 7.835 ± 0.074
x2 = 0.373 | 5.386 ± 0.049
x2 = 0.4703 | 4.069 ± 0.035
x2 = 0.5678 | 3.265 ± 0.026
x2 = 0.6724 | 2.732 ± 0.021
x2 = 0.791 | 2.203 ± 0.015
x2 = 0.8922 | 2.015 ± 0.013

O=C(O)C=Cc1ccccc1 + CO
viscosity [mPa·s]
Conditions | 308.15 K | 313.15 K | 318.15 K | 323.15 K
101 kPa, x1 = 0.075 | 0.8921 ± 0.0089 | – | – | 0.7246 ± 0.0075
101 kPa, x1 = 0.084 | 0.9758 ± 0.0098 | – | – | 0.7679 ± 0.008
101 kPa, x1 = 0.0887 | 1.014 ± 0.01 | – | – | 0.797 ± 0.0083
101 kPa, x1 = 0.0981 | 1.092 ± 0.011 | – | – | 0.846 ± 0.0089
101.33 kPa, x1 = 0.075 | 0.891 ± 0.024 | 0.8453 ± 0.022 | 0.7855 ± 0.021 | 0.7246 ± 0.019
101.33 kPa, x1 = 0.0981 | 1.092 ± 0.029 | 1.003 ± 0.027 | 0.9163 ± 0.024 | 0.846 ± 0.022

CC(=O)O.NCCO + O
viscosity [mPa·s], 101 kPa
Conditions | x1 = 0.0075 | x1 = 0.0163 | x2 = 0.8718 | x2 = 0.9099 | x2 = 0.9403 | x2 = 0.9641 | x2 = 0.9743
293.15 K | 1.308 ± 0.064 | 1.512 ± 0.073 | 7.458 ± 0.39 | 4.47 ± 0.27 | 2.88 ± 0.16 | 2.01 ± 0.1 | 1.71 ± 0.087
298.15 K | 1.17 ± 0.057 | 1.344 ± 0.065 | 6.312 ± 0.33 | 3.84 ± 0.2 | 2.513 ± 0.13 | 1.788 ± 0.089 | 1.512 ± 0.075
303.15 K | 1.05 ± 0.053 | 1.218 ± 0.059 | 5.448 ± 0.29 | 3.354 ± 0.15 | 2.232 ± 0.1 | 1.584 ± 0.079 | 1.35 ± 0.064

CS(C)=O + c1ccccc1
viscosity [mPa·s], 101.3 kPa
Conditions | x1 = 0.1043 | x1 = 0.2048 | x1 = 0.3059 | x1 = 0.4069 | x1 = 0.5105 | x1 = 0.6085 | x1 = 0.7063 | x1 = 0.8049 | x1 = 0.9029
298.15 K | 0.669 ± 0.018 | 0.743 ± 0.02 | 0.829 ± 0.021 | 0.923 ± 0.023 | 1.036 ± 0.026 | 1.169 ± 0.029 | 1.317 ± 0.032 | 1.492 ± 0.036 | 1.712 ± 0.041
303.15 K | 0.622 ± 0.017 | 0.69 ± 0.018 | 0.766 ± 0.02 | 0.853 ± 0.022 | 0.955 ± 0.024 | 1.071 ± 0.027 | 1.207 ± 0.03 | 1.367 ± 0.033 | 1.562 ± 0.038
308.15 K | 0.581 ± 0.016 | 0.643 ± 0.017 | 0.714 ± 0.019 | 0.796 ± 0.021 | 0.884 ± 0.023 | 0.99 ± 0.025 | 1.111 ± 0.028 | 1.258 ± 0.031 | 1.426 ± 0.035

CCCCC + CCCCCCC
298.15 K, 101.33 kPa
Conditions | viscosity [mPa·s]
x1 = 0.1046 | 0.3691 ± 0.0057
x1 = 0.2024 | 0.3579 ± 0.0056
x1 = 0.3087 | 0.3325 ± 0.0053
x1 = 0.4077 | 0.3173 ± 0.0051
x1 = 0.4979 | 0.3004 ± 0.005
x1 = 0.5999 | 0.2848 ± 0.0048
x1 = 0.6624 | 0.2762 ± 0.0047
x1 = 0.7972 | 0.254 ± 0.0045
x1 = 0.8929 | 0.242 ± 0.0044

CCCCC + CCO
298.15 K, 101.33 kPa
Conditions | viscosity [mPa·s]
x2 = 0.0673 | 0.245 ± 0.003
x2 = 0.1351 | 0.255 ± 0.004
x2 = 0.2366 | 0.288 ± 0.004
x2 = 0.3031 | 0.302 ± 0.004
x2 = 0.4034 | 0.347 ± 0.005
x2 = 0.5262 | 0.425 ± 0.006
x2 = 0.6339 | 0.521 ± 0.007
x2 = 0.7315 | 0.634 ± 0.008
x2 = 0.8097 | 0.742 ± 0.009
x2 = 0.9174 | 0.927 ± 0.012
